For one test, the system named is 1A9. Description: In vitro cytotoxicity against human ovarian cancer (IA9) cell line. In kind it is functional. The following applies: read-out: ED50 (the source's name).
A further test deals with HOS. Description: In vitro cytotoxicity against human osteosarcoma (Hos) cell line. Type of test: functional. Particulars: for EC50: read-out: ED50 (the source's name).
Test [1] deals with U-87 MG. Description: (§1) In vitro cytotoxicity against human glioblastoma (U-87-MG) cell line. Also noted: concentration or dose not given beside the values. Type of test: functional, U-87MG ATCC.
The next test has as its system MCF7. The test can be described thus: In vitro cytotoxicity against human breast cancer (MCF-7) cell line. Type of test: functional. Particulars: read-out: ED50 (the source's name).
For another test, the system named is SK-MEL-2. Description: In vitro cytotoxicity against human melanoma (SKMEL-2) cell line. In kind it is functional. The following applies: for EC50: read-out: ED50 (the source's name).
The test system of another test is HCT-8. Description: In vitro cytotoxicity against human ileocecal carcinoma (HCT-8) cell line. The following applies: for EC50: read-out: ED50 (the source's name). Type of test: functional.
For the next test, the system named is A549. The test can be described thus: In vitro cytotoxicity against human lung carcinoma (A-549) cell line. In kind it is functional. Particulars: read-out: ED50 (the source's name).
In test [2] the test system is KB. Description: In vitro cytotoxicity against human P-glycoprotein-expressing epidermoid carcinoma of the nasopharynx (KB-VIN) cell line. In kind it is functional. The following applies: read-out: ED50 (the source's name).
The test system of test [3] is U-87 MG. The description is as §1. In kind it is functional, U-87MG ATCC. The following applies: read-out: ED50 (the source's name).
In test [4] the test system is KB. Description: In vitro cytotoxicity against human epidermoid carcinoma of the nasopharynx (KB) cell line. In kind it is functional. The following applies: read-out: ED50 (the source's name).

Molecules are shown by their SMILES. Values after ≈ are worked out from the molar mass of the structure shown. Bounds are passed on as bounds.

In the case of `Cc1ccccc1C1OC1C(=O)c1ccccc1N` (stereo unspecified), the EC50 with 1A9 is 12.5 µg/mL (≈ 49.3 µM); with HOS it was > 20 µg/mL; with MCF7, 19.5 µg/mL (≈ 77 µM); with SK-MEL-2, > 20 µg/mL; with HCT-8, > 20 µg/mL; in the test with A549, 17 µg/mL (≈ 67.1 µM). For the same molecule, the EC50 with KB [2] was 11.5 µg/mL (≈ 45.4 µM); in the test with U-87 MG [3] it was > 20 µg/mL; with KB [4], 15.5 µg/mL (≈ 61.2 µM). Further, the Inhibition with HOS is 47%; in the test on U-87 MG [1] it was 28%; in the test on SK-MEL-2, 45%; with HCT-8, 41%.

Regarding `Nc1cc2c(cc1C(=O)C1OC1c1ccccc1F)OCO2` (stereo unspecified), the EC50 in the test on 1A9 is 1.85 µg/mL (≈ 6.14 µM); with HOS it was 4 µg/mL (≈ 13.3 µM); in the test with MCF7 it was 2.3 µg/mL (≈ 7.63 µM); in the test on SK-MEL-2 it was 9.5 µg/mL (≈ 31.5 µM); in the test with HCT-8, 4.8 µg/mL (≈ 15.9 µM); in the test on A549 it was 3.5 µg/mL (≈ 11.6 µM). Besides, the EC50 in the test on KB [2] turned out to be 2.3 µg/mL (≈ 7.63 µM); with U-87 MG [3], 9 µg/mL (≈ 29.9 µM); with KB [4], 15.4 µg/mL (≈ 51.1 µM).

For the molecule `COc1cccc(/C=C/C(=O)c2ccc3c(c2)OCO3)c1`, the EC50 was 15 µg/mL (≈ 53.1 µM) in the test on 1A9; > 20 µg/mL with HOS; 19 µg/mL (≈ 67.3 µM) in the test with MCF7; > 20 µg/mL in the test on SK-MEL-2; > 20 µg/mL in the test with HCT-8; 18.5 µg/mL (≈ 65.5 µM) in the test with A549. In addition, the EC50 in the test on KB [2] is 14 µg/mL (≈ 49.6 µM); in the test with U-87 MG [3] it was > 20 µg/mL; in the test with KB [4], 18.7 µg/mL (≈ 66.2 µM). The Inhibition in the test on HOS is listed as 42%; with U-87 MG [1], 20%; with SK-MEL-2, 42%; in the test on HCT-8, 28%.

In the case of `Nc1cc2c(cc1C(=O)/C=C/c1ccc(F)cc1)OCO2`, the EC50 in the test with 1A9 is 3.5 µg/mL (≈ 12.3 µM); in the test on HOS, 6 µg/mL (≈ 21 µM); in the test on MCF7, 5.1 µg/mL (≈ 17.9 µM); with SK-MEL-2 it was 9 µg/mL (≈ 31.5 µM); in the test with HCT-8, 6.5 µg/mL (≈ 22.8 µM); in the test with A549, 4.2 µg/mL (≈ 14.7 µM). Further, the EC50 is 2.2 µg/mL (≈ 7.71 µM) with KB [2], > 10 µg/mL in the test with U-87 MG [3] and 3.1 µg/mL (≈ 10.9 µM) with KB [4]. In addition, the Inhibition in the test on U-87 MG [1] was found to be 49%.

Turning to `Cc1ccccc1/C=C/C(=O)c1ccccc1N`, the EC50 in the test with 1A9 is 1.2 µg/mL (≈ 5.06 µM); with HOS, 4 µg/mL (≈ 16.9 µM); in the test with MCF7, 6.1 µg/mL (≈ 25.7 µM); with SK-MEL-2, 5.1 µg/mL (≈ 21.5 µM); in the test on HCT-8, 9.8 µg/mL (≈ 41.3 µM); in the test with A549, 3.5 µg/mL (≈ 14.7 µM). Further, the results for the EC50 in the test on KB [2], in the test on U-87 MG [3] and in the test with KB [4] were 1.25 µg/mL (≈ 5.27 µM), > 10 µg/mL and 1.35 µg/mL (≈ 5.69 µM), respectively. Besides, the Inhibition with U-87 MG [1] is recorded as 34%.

Turning to `Nc1cc2c(cc1C(=O)/C=C/c1ccccc1F)OCO2`, the EC50 in the test on 1A9 came out at 1.5 µg/mL (≈ 5.26 µM); in the test with HOS, 4 µg/mL (≈ 14 µM); in the test on MCF7, 2.6 µg/mL (≈ 9.11 µM); with SK-MEL-2, 6.5 µg/mL (≈ 22.8 µM); with HCT-8, 3 µg/mL (≈ 10.5 µM); with A549 it was 2 µg/mL (≈ 7.01 µM). Also, the EC50 was 0.95 µg/mL (≈ 3.33 µM) in the test on KB [2], 7 µg/mL (≈ 24.5 µM) with U-87 MG [3] and 1.5 µg/mL (≈ 5.26 µM) with KB [4].

On to `COc1cccc(/C=C/C(=O)c2cc3c(cc2N)OCO3)c1`, for which the EC50 was found to be 0.35 µg/mL (≈ 1.18 µM) in the test on 1A9; 2.4 µg/mL (≈ 8.07 µM) in the test with HOS; 0.48 µg/mL (≈ 1.61 µM) in the test on MCF7; 2.3 µg/mL (≈ 7.74 µM) in the test on SK-MEL-2; 1.5 µg/mL (≈ 5.05 µM) with HCT-8; 0.45 µg/mL (≈ 1.51 µM) in the test with A549. For the same molecule, the EC50 in the test on KB [2] was found to be 0.3 µg/mL (≈ 1.01 µM); in the test with U-87 MG [3] it was 8 µg/mL (≈ 26.9 µM); in the test on KB [4], 0.52 µg/mL (≈ 1.75 µM).

With `COc1cccc(/C=C/C(=O)c2ccccc2N)c1`, the EC50 with 1A9 amounted to 0.8 µg/mL (≈ 3.16 µM); in the test with HOS, 2 µg/mL (≈ 7.9 µM); with MCF7, 1.3 µg/mL (≈ 5.13 µM); in the test with SK-MEL-2, 3.5 µg/mL (≈ 13.8 µM); with HCT-8, 4.5 µg/mL (≈ 17.8 µM); with A549, 1.2 µg/mL (≈ 4.74 µM). Besides, the EC50 in the test with KB [2] is 0.3 µg/mL (≈ 1.18 µM); with U-87 MG [3], 5.1 µg/mL (≈ 20.1 µM); with KB [4], 0.65 µg/mL (≈ 2.57 µM).

For the molecule `COc1cccc(C2OC2C(=O)c2cc3c(cc2N)OCO3)c1` (stereo unspecified), the EC50 was 1.2 µg/mL (≈ 3.83 µM) with 1A9; 4.5 µg/mL (≈ 14.4 µM) in the test with HOS; 1.1 µg/mL (≈ 3.51 µM) in the test on MCF7; 9.8 µg/mL (≈ 31.3 µM) with SK-MEL-2; 2.1 µg/mL (≈ 6.7 µM) with HCT-8; 2 µg/mL (≈ 6.38 µM) in the test on A549. Also, the EC50 with KB [2] was found to be 1.3 µg/mL (≈ 4.15 µM); in the test on U-87 MG [3] it was 5 µg/mL (≈ 16 µM); with KB [4], 2 µg/mL (≈ 6.38 µM).

The values above are taken from ChEMBL document CHEMBL1133323, “Antitumor agents. Part 202: novel 2'-amino chalcones: design, synthesis and biological evaluation” (2000).
